According to publication PMC4318710 (Bioorganic & medicinal chemistry letters, 2015):

What was measured:
[1] = tested on: C57BL/6 mice; assay: in vivo serum iron levels in mice after intraperitoneal peptide injection; settings: 50-100 nmoles/mouse
[2] = stability on prolonged storage in DMSO; format: physicochemical; settings: 10 mM solution in DMSO, room temperature, 30 days, LC/MS/MS

Structure (SMILES)	serum iron at 6 and 24 h time points [1]	stability in DMSO [2] [%]
CCCCCCCCCCCCCCCCNC(=O)CN(CC(N)=O)C(=O)CCCCCNC(=O)C[C@H](Cc1ccccc1)NC(=O)[C@H](CCCNC(=N)N)NC(=O)[C@H](CSC(=CP(=O)(OCC)OCC)P(=O)(OCC)OCC)NC(=O)[C@H](CCCNC(=N)N)NC(=O)C[C@@H]1CCCN1C(=O)[C@@H](NC(=O)[C@H](Cc1c[nH]cn1)NC(=O)[C@@H](NC(=O)CNCC(=O)O)[C@@H](C)O)C(c1ccccc1)c1ccccc1 [PR73SH]	decreased serum iron	99.5±0.5
CCCCCCCCCCCCCCCCNC(=O)CN(CC(N)=O)C(=O)CCCCCNC(=O)C[C@H](Cc1ccccc1)NC(=O)[C@H](CCCNC(=N)N)NC(=O)[C@H](CS)NC(=O)[C@H](CCCNC(=N)N)NC(=O)C[C@@H]1CCCN1C(=O)[C@@H](NC(=O)[C@H](Cc1c[nH]cn1)NC(=O)[C@@H](NC(=O)CNCC(=O)O)[C@@H](C)O)C(c1ccccc1)c1ccccc1 [PR73]	decreased serum iron	
